Measurements: patent US20170007615A1, “Antibacterial Compounds” (priority 2014, published 2017)
In brackets after ≈: the same amount, converted by molar mass. Like-named read-outs stand apart in the source and are kept apart here.

Columns and labels:
[1] = system: A. baumannii drug resistant clinical isolates; assay: Antibacterial activity (MIC) against drug resistant clinical isolates, alone and with PMBN; type: cell-based; settings: for MIC: Acinetobacter baumannii, read-out: MIC Compound alone
[2] = system: E. cloaceae drug resistant clinical isolates; assay: as above; type: cell-based; settings: for MIC: read-out: MIC Compound alone
[3] = system: S. aureus (ATCC 29213); assay: Antibacterial activity (MIC), Gram-positive type strain; type: cell-based, Staphylococcus aureus; settings: Staphylococcus aureus, ATCC29213; Table 13
[4] = system: E. faecalis (ATCC 29212); assay: as above; type: cell-based, Enteroccocus faecalis; settings: Enterococcus faecalis, ATCC29212; Table 13
[5] = system: H. influenzae (ATCC 49247); assay: Antibacterial activity (MIC), Gram-negative type strain; type: cell-based, Haemophilus influenzae; settings: Haemophilus influenzae, ATCC49247; Table 13
[6] = system: N. gonorrheae (ATCC 49226); assay: as above; type: cell-based, Neisseria gonorrhoeae; settings: Neisseria gonorrhoeae, ATCC49226; Table 13
[7] = system: E. coli (ATCC 25922)
[8] = system: A. baumannii (ATCC 19606); settings: Table 4
[9] = system: P. aeruginosa (ATCC 27853); settings: Table 5
[10] = system: E. cloaceae (ATCC 13047); settings: Table 6
[11] = system: E. coli (ATCC 25922); assay: microbe, parasite or virus in culture; settings: Escherichia coli
[12] = system: A. baumannii (ATCC 19606); assay: microbe, parasite or virus in culture; settings: Acinetobacter baumannii, ATCC19606, read-out: MIC Compound alone
[13] = system: P. aeruginosa (ATCC 27853); assay: microbe, parasite or virus in culture; settings: Pseudomonas aeruginosa, ATCC27853, read-out: MIC Compound alone
[14] = system: E. cloaceae (ATCC 13047); assay: microbe, parasite or virus in culture; settings: Enterobacter cloacae, ATCC13047, read-out: MIC Compound alone

MIC of Compound (μg/ml) in the presence of PMBN (128 μg/ml) ([1]; A. baumannii (MMX 4454)): 0.12 µg/mL
MIC of Compound (μg/ml) in the presence of PMBN (128 μg/ml) ([1]; A. baumannii (MMX 6331)): 0.06 µg/mL
MIC of Compound (μg/ml) in the presence of PMBN (128 μg/ml) ([1]; A. baumannii (NCTC13301)): 0.12 µg/mL
MIC of Compound (μg/ml) in the presence of PMBN (128 μg/ml) ([1]; A. baumannii (NCTC13302)): 0.03 µg/mL
MIC of Compound (μg/ml) in the presence of PMBN (128 μg/ml) ([1]; A. baumannii (NCTC13303)): 0.06 µg/mL
MIC of Compound (μg/ml) in the presence of PMBN (128 μg/ml) ([1]; A. baumannii (NCTC13304)): 0.03 µg/mL
MIC of Compound (μg/ml) in the presence of PMBN (128 μg/ml) ([1]; A. baumannii (NCTC13305)): 0.12 µg/mL
MIC of Compound (μg/ml) in the presence of PMBN (128 μg/ml) ([1]; A. baumannii (NCTC 13420)): 0.03 µg/mL
MIC of Compound (μg/ml) in the presence of PMBN (128 μg/ml) ([1]; A. baumannii (NCTC13421)): 0.03 µg/mL
MIC of Compound (μg/ml) in the presence of PMBN (128 μg/ml) ([1]; A. baumannii (NCTC13422)): 0.03 µg/mL
MIC of Compound (μg/ml) in the presence of PMBN (128 μg/ml) ([1]; A. baumannii (NCTC13424)): 0.03 µg/mL
MIC ([1]; A. baumannii (MMX 2585)): 4 µg/mL (≈ 7.61 µM)
MIC ([1]; A. baumannii (MMX 2598)): 2 µg/mL (≈ 3.8 µM)
MIC ([1]; A. baumannii (MMX 2600)): 2 µg/mL (≈ 3.8 µM)
MIC ([1]; A. baumannii (MMX 4405)): 4 µg/mL (≈ 7.61 µM)
MIC ([1]; A. baumannii (MMX 4454)): 1 µg/mL (≈ 1.9 µM)
MIC ([1]; A. baumannii (MMX 6331)): 4 µg/mL (≈ 7.61 µM)
MIC ([1]; NCTC13301, A. baumannii (NCTC13301)): 4 µg/mL (≈ 7.61 µM)
MIC ([1]; NCTC13302, A. baumannii (NCTC13302)): 1 µg/mL (≈ 1.9 µM)
MIC ([1]; NCTC13303, A. baumannii (NCTC13303)): 2 µg/mL (≈ 3.8 µM)
MIC ([1]; NCTC13304, A. baumannii (NCTC13304)): 1 µg/mL (≈ 1.9 µM)
MIC ([1]; NCTC13305, A. baumannii (NCTC13305)): 2 µg/mL (≈ 3.8 µM)
MIC ([1]; NCTC13420, A. baumannii (NCTC 13420)): 1 µg/mL (≈ 1.9 µM)
MIC ([1]; NCTC13421, A. baumannii (NCTC13421)): 2 µg/mL (≈ 3.8 µM)
MIC ([1]; NCTC13422, A. baumannii (NCTC13422)): 4 µg/mL (≈ 7.61 µM)
MIC ([1]; NCTC13424, A. baumannii (NCTC13424)): 1 µg/mL (≈ 1.9 µM)
MIC of Compound (μg/ml) in the presence of PMBN (128 μg/ml) ([2]; E. cloaceae (MMX 6087)): 0.25 µg/mL
MIC ([2]; E. cloaceae (MMX 6087)): > 64 µg/mL
MIC of Compound (μg/ml) in the presence of PMBN (128 μg/ml) ([2]; E. cloaceae (MMX 6093)): 0.12 µg/mL
MIC ([2]; E. cloaceae (MMX 6093)): 8 µg/mL (≈ 15.2 µM)
MIC of Compound (μg/ml) in the presence of PMBN (128 μg/ml) ([2]; E. cloaceae (MMX 6095)): 1 µg/mL
MIC ([2]; E. cloaceae (MMX 6095)): > 64 µg/mL
MIC of Compound (μg/ml) in the presence of PMBN (128 μg/ml) ([2]; E. cloaceae (MMX 6304)): 0.25 µg/mL
MIC ([2]; E. cloaceae (MMX 6304)): > 16 µg/mL
MIC [3]: ≤ 0.008 µg/mL
MIC [4]: ≤ 0.008 µg/mL
MIC [5]: 0.015 µg/mL (≈ 0.0285 µM)
MIC [6]: ≤ 0.008 µg/mL
MIC of Compound (μg/ml) in the presence of PMBN (128 μg/ml) ([7]; Table 1, (b) No effect): 0.008 µg/mL
MIC of Compound (μg/ml) in the presence of Colistin (1 μg/ml) ([7]; Table 2, colistin sub-inhibitory): 0.25 µg/mL
MIC of Compound (μg/ml) in the presence of PMB (0.5 μg/ml) ([7]; Table 3, PMB sub-inhibitory): 0.12 µg/mL
MIC of Compound (μg/ml) in the presence of PMBN (128 μg/ml) [8]: 0.03 µg/mL
MIC of Compound (μg/ml) in the presence of PMBN (128 μg/ml) [9]: <=0.008 μg/ml
MIC of Compound (μg/ml) in the presence of PMBN (128 μg/ml) [10]: 0.25 µg/mL
MIC ([11]; ATCC25922, read-out: MIC Compound alone, Table 1): 1 µg/mL (≈ 1.9 µM)
MIC ([11]; ATCC25922, read-out: MIC Compound alone, Table 2): 1 µg/mL (≈ 1.9 µM)
MIC ([11]; ATCC25922, read-out: MIC Compound alone, Table 3): 1 µg/mL (≈ 1.9 µM)
MIC [12]: 1 µg/mL (≈ 1.9 µM)
MIC [13]: 4 µg/mL (≈ 7.61 µM)
MIC [14]: > 64 µg/mL
Compound: CCNC(=O)Nc1nc2cc(-c3cnc(NS(=O)(=O)C(C)(C)C)nc3)cc(-c3ccc(C)cn3)c2s1 [Compound A-13, 1-[5-[2-(tert-Butylsulfonylamino)pyrimidin-5-yl]-7-(5-methyl-2-pyridyl)-1,3-benzothiazol-2-yl]-3-ethyl-urea]
